Data published in US20220233441A1, “MIC[…] SYSTEMS FOR CANNABIS EXTRACTS AND […]” (Quicksilver Scientific, Inc., priority 2019, published 2022).
Entries after “also recorded” stand apart in the source; their conditions may differ.

Experiment: Formation of shelf-stable and visually clear MOIW microemulsions with different constituents
Assay type: physicochemical
Excerpt: A shelf-stable microemulsion may be determined in one of two ways. […] Either type of dissociation means that the microemulsion is not shelf-stable.
A visually clear microemulsion has an average particle diameter of 200 nm and less and lacks precipitated solid crystals visible to the naked eye.

Molecule	usefulness of the constituent for forming shelf-stable and visually clear MOIW microemulsions
OC[C@@H](O)[C@@H](O)CO [erythritol]	not useful
OC[C@@H](O)[C@@H](O)[C@H](O)[C@H](O)CO [mannitol]	not useful
OC[C@@H](O)[C@@H](O)[C@H](O)[C@@H](O)CO [sorbitol]	not useful
OC[C@@H](O)[C@H](O)[C@@H](O)CO [xylitol]	not useful
polysorbate 20	did not form shelf-stable and visually clear microemulsions; also recorded: not useful
